Tests used:
Format in all cases: cell-based, human
[1] = system: retinal progenitor cells dispersed into single cells (KhES-1- and 1231A3-derived aggregates); assay: Search of aggregate reforming factor: suspension culture of dispersed retinal cells (Example 1); details: added at cell seeding; Y-27632 10 μM or 20 μM; Day 1 to Day 2 of suspension culture
Protocol: Human ES cells (KhES-1 strain (Non Patent Literature 3)) and human iPS cells (1231A3 strain, Kyoto University) genetically engineered so as to have Rx::Venus reporter gene were cultured under feeder-free conditions in accordance with the method described in “Scientific Reports, 4, 3594 (2014)”. As a feeder-free medium, StemFit medium (trade name: AK03N, manufactured by Ajinomoto Co., Inc.) was used, and as a scaffold as an alternative to feeder cells, Laminin511-E8 (trade name, manufactured by Nippi, Inc.) was used.
Specific operation of maintenance culture for human ES and human iPS cells (human ES/iPS cells) was performed as follows: First, human ES/iPS cells that reached sub-confluency (state where about 60% of the culture area was covered by cells) were washed with PBS and separated into single cells by use of TrypLE Select (trade name, manufactured by Life Technologies). In this context, the dispersion into single cells refers to performing dispersion so as to become single cells, and a cell population dispersed into single cells is capable of containing a mass of 2 to 50 cells, in addition to single cells. Then, the separated human ES single cells were seeded in plastic culture dishes coated with Laminin 511-E8 and cultured under feeder-free conditions in StemFit medium in the presence of Y-27632 (ROCK inhibitor, 10 μM). […]

[2] = system: single cell suspension of dispersed retinal cells (KhES-1-derived); assay: Layer structure formation-promoting factor: reformed aggregates, immunostained sections (Example 3); details: 3 μM CHIR99021
Protocol: The aggregates of Day 26 from initiation of the suspension culture prepared as in Example 1 were washed with PBS, and a neuronal cell dispersion solution (manufactured by FUJIFILM Wako Pure Chemical Corp.) was added. After incubation at 37° C., they were dispersed into single cells by pipetting. These cells were suspended in 100 μL of a serum-free medium so as to become 3.0×10^4 cells per well of a non-cell adhesive 96-well culture plate (trade name: PrimeSurface 96-well V-bottom plate, manufactured by Sumitomo Bakelite Co., Ltd.), and suspension-cultured at 37° C. and 5% CO2.
The aggregates of Day 15 (corresponding to Differentiation Day 41) and Day 28 (corresponding to Differentiation Day 54) after suspension culture for aggregate reforming were fixed in 4% PFA, and frozen sections were prepared. These frozen sections were subjected to immunostaining using DAPI and anti-Chx10 antibody (trade name: Anti CHX10 Antibody, Exalpha Biologicals Inc.), anti-β-catenin antibody (R&D Systems, Inc.), anti-collagen IV antibody (Abcam plc), anti-Zo-1 antibody (Invitrogen Corp.), anti-Ki67 antibody (Becton, Dickinson and Company), anti-Pax6 antibody (BioLegend, Inc.), anti-RxR-γ (RxRg) antibody (Spring Bioscience Corp.), anti-CRX antibody (Abnova Corp.), anti-NRL antibody (R&D Systems, Inc.), anti-recoverin antibody (manufactured by Proteintech Group, Inc.), anti-Islet-1 antibody (Developmental Studies Hybridoma Bank (DSHB)), anti-GS antibody (Sigma-Aldrich Co., LLC), anti-Brn3 antibody (Santa Cruz Biotechnology), and anti-calretinin antibody (R&D Systems, Inc.).
These immunostained sections were observed under a bright field microscope and a fluorescence microscope (BZ-X810 manufactured by Keyence Corp.) and a confocal laser scanning fluorescence microscope (SP-8 manufactured by Leica), and the results are shown in FIGS. 11 to 20. […] From FIGS. 19 and 20, it was confirmed that RxR-Y(RxRg)-positive and CRX-positive cone progenitor cells and recoverin-positive and CRX-positive photoreceptor progenitor cells were differentiated, and the differentiation of Islet-1-positive and Brn3-positive retinal ganglion cells and calretinin-positive amacrine cells was also confirmed.

[3] = system: retinal cells (NR) dispersed into single cells (KhES-1-derived, dd33); assay: Seeding onto Transwell: concentration and addition period of CHIR99021 (Example 10); details: 1 μM to 9 μM CHIR99021 for 3 days to 9 days
Protocol: The aggregates of 33 days (dd33) after the start of the suspension culture prepared as in Example 1 were washed with PBS, and a neuronal cell dispersion solution (manufactured by FUJIFILM Wako Pure Chemical Corp.) was added. After incubation at 37° C., they were dispersed into single cells by pipetting. […] 3 days or later from seeding, the medium was replaced once every 3 to 4 days.
Accordingly, these cell sheets were fixed in 4% PFA, and frozen sections were prepared. These frozen sections were subjected to immunostaining using DAPI.

[4] = system: retinal cells (NR) dispersed into single cells (KhES-1-derived); assay: Seeding onto Transwell: confirmation of effect of CHIR99021 (Example 9); details: CHIR99021 5 μM or 3 μM with Y-27632 (and SAG); Day 14
Protocol: The aggregates of Days 15 to 30 from initiation of the suspension culture prepared as in Example 1 were washed with PBS, and a neuronal cell dispersion solution (manufactured by FUJIFILM Wako Pure Chemical Corp.) was added. After incubation at 37° C., they were dispersed into single cells by pipetting.
When cell sheets obtained on Culture Day 14 for aggregate reforming were observed, it was confirmed that the cells were engrafted under all the conditions (FIG. 29). Accordingly, these cell sheets were fixed in 4% PFA, and frozen sections were prepared. These frozen sections were subjected to immunostaining using DAPI and anti-Zo-1 antibody (trade name: Anti Zo-1 Antibody, manufactured by Invitrogen Corp.) and anti-collagen IV antibody (Abcam plc). These immunostained sections were observed under a confocal laser scanning fluorescence microscope.

[5] = system: single cells dispersed from KhES-1- and 1231A3-derived aggregates; assay: Aggregate proliferation-promoting factor: aggregate area in suspension culture with Y-27632 (Example 2); details: SAG 300 nM or CHIR99021 3 μM in addition to 10 μM Y-27632; Day 1, 7, 14
Protocol: The aggregates of Day 20 (1231A3) and Day 27 (KhES-1) from initiation of the suspension culture prepared as in Example 1 were washed with PBS, and a neuronal cell dispersion solution (manufactured by FUJIFILM Wako Pure Chemical Corp.) was added. After incubation at 37° C., they were dispersed into single cells by pipetting. These cells were suspended in 100 μL of a serum-free medium containing 10 μM Y-27632 (FUJIFILM Wako Pure Chemical Corp.) so as to become 2 to 5×10^5 cells per well of a non-cell adhesive 96-well culture plate (trade name: PrimeSurface 96-well V-bottom plate, manufactured by Sumitomo Bakelite Co., Ltd.), and suspension-cultured at 37° C. and 5% CO2. […] The reformed states of the aggregates were observed under a bright field microscope and a fluorescence microscope (BZ-X810 manufactured by Keyence Corp.) on Day 1, Day 7, and Day 14 after suspension culture for aggregate reforming. The areas of the aggregates were measured in Image J. The results of the KhES-1-derived cells are shown in FIG. 6 (an average value from 12 […] measured). The results of the 1231A3-derived cells in which the reformed states of the aggregates of Day 1 after suspension culture were observed are shown in FIG. 7.

C[C@@H](N)[C@H]1CC[C@H](C(=O)Nc2ccncc2)CC1 [Y-27632] was tested, and the early aggregate reforming [1] was “aggregates were reformed from Day 1 to Day 2”.
For Cc1c[nH]c(-c2cnc(NCCNc3ccc(C#N)cn3)nc2-c2ccc(Cl)cc2Cl)n1 [CHIR99021], the reforming of aggregates ([2]; Day 1, Day 14, Day 28) was “aggregates were reformed”, the “apical-basal polarity (Zo-1, collagen IV)” value ([2]; Day 15 and Day 28 sections) was “epithelial tissue having apical and basal polarities was formed” and the “layer structure formation (Rx::Venus, Chx10)” value ([2]; Day 15 and Day 28 sections) was “a layer structure where Rx::Venus-positive and Chx10-positive neural retinal progenitor cells were contained was formed”. For the same compound, the “reforming of thick sheets” value [3] was “thick sheets of Rx::Venus-positive retinal progenitor cells were reformed”, the “apical and basal polarity of sheet” value [4] was “sheets of Rx::Venus-positive retinal progenitor cells having apical and basal polarities were formed again” and the “size of reformed aggregates versus only Y-27632” value [5] was “larger aggregates were reformed”.

— patent US20250019652A1, “PRODUCTION METHOD FOR SHEET-LIKE RETINAL TISSUE” (RIKEN, priority 2021, published 2025)
